Reference: patent publication US20230025377A1, “COMPOSITIONS AND METHODS FOR TREATING OR PREVENTING PRURITUS” (HLB THERAPEUTICS CO., LTD., priority 2020, published 2023)
Several values for one entry are separate records, joined by “and”; a condition that tells them apart may be missing. Equal entries are not always repeated. Entries after “also recorded” stand apart in the source; their conditions may differ.

Columns and labels:
Assay type in all cases: cell-based, human
[1] = test system: HMC-1 cells; test: Prostaglandin E2 (PGE2) release in PMACI-treated HMC-1 cells (ELISA); details: for PGE2 release: mean ± S.E.
Experimental: (§1) Cell culture: Human Mast Cell Line (HMC-1) cells (ATCC, Manassas, Va., USA) were maintained in IMDM (Iscove's Modified Dulbecco's Media) medium (Thermo Fisher Scientific) containing 10% fetal bovine serum (FBS; Hyclone, GE Healthcare Life Sciences) and 1% penicillin-streptomycin (Sigma-Aldrich, St. Louis, Mo., USA) in a 37° C. humidified incubator with 5% CO2. The medium was changed every 2-3 days.
(§2) HMC-1 cell treatment: HMC-1 cells were seeded in 12-well plates at a density of 7×10^5 cells per well and exposed to Tβ4 (1, 1.5, 3, and 6 μg/mL) for 1 hour before treatment with phorbol 12-myristate 13-acetate plus A23187 (PMACI; 30 nM of PMA plus 1.5 μM of A23187) to induce degranulation (activation) of mast cells and incubated at 37° C. After 2.5 hours, the medium was centrifuged (Hanil, UNION 32R PLUS) for 20 minutes at 1000×g. The supernate was transferred to another tube.
The prostaglandin E2 (PGE2) amount was measured using a human PGE2 ELISA kit (Abeam, Cambridge, Mass.) on the supernate of the culture medium. 100 μL of the sample was added to 96-plate wells, then 50 μL of PGE2 Alkaline Phosphatase Conjugate was added. 50 ul of PGE2 Antibody was added and incubated on a shaker at room temperature for 45 minutes. 200 μL of pNPP substrate solution was added and incubated at 37° C. for 30 minutes. 90 μL of Substrate reagent was added and incubated at room temperature for 45 minutes. Washing was performed between each step. 50 μL of stop solution was added without washing. Absorbance was measured at 405 nm with a spectrophotometer (Biotek, PowerWave XS2, Winooski, Vt., USA).

[2] = test system: HMC-1 cells; test: IL-4 release in PMACI-treated HMC-1 cells (ELISA); details: for IL-4 release: mean ± S.E.
Experimental: as §1, §2
(§3) Inflammatory cytokines: IL-4, IL-13, and TNF-α amounts were evaluated to determine the effects of the disclosed composition on the release of inflammatory cytokines. IL-4 and IL-13 amounts were measured using Human IL-4 (ab100570) and IL-13 (ab100553) ELISA kit (Abeam, Cambridge, Mass.) on the supernate of the culture medium. 100 μL of the sample was added to 96-plate wells, then 100 μL of Biotinylated IL-4 and IL-13 detection antibody were added and incubated at room temperature for 1 hour. 100 μL of HRP-streptavidin solution was added and incubated at room temperature for 45 minutes. 100 μL of TMB one step substrate reagent was added and incubated at room temperature for 30 minutes. Washing was performed between each step and incubated on a shaker. Finally, 50 μL of stop solution was added without washing. Absorbance was measured at 450 nm with a spectrophotometer (Biotek, PowerWave XS2, Winooski, Vt., USA).

[3] = test system: HMC-1 cells; test: TNF-α release in PMACI-treated HMC-1 cells (ELISA); details: for TNF-α release: PMACI-treated HMC-1 cells, mean ± S.E.
Experimental: as §1, §2
The TNF-α amount was measured using a human TNF-alpha ELISA kit (Abeam, Cambridge, Mass.) on the supernate of the culture medium. 100 μL of the sample was added to 96-plate wells, then 50 μL of Biotinylated TNF alpha detection antibody was added and incubated at room temperature for 3 hours. 100 μL of HRP-streptavidin solution was added and incubated at room temperature for 30 minutes. 100 μL of Chromogen TMB substrate solution was added and incubated at room temperature of the light-shielding state for 20 minutes. Washing was performed between each step and incubated on a shaker. 50 μL of stop solution was added without washing. Absorbance was measured at 450 nm with a spectrophotometer (Biotek, PowerWave XS2, Winooski, Vt., USA).

[4] = test system: HMC-1 cells; test: Leukotrien B4 (LTB4) release in PMACI-treated HMC-1 cells (ELISA); details: for Leukotrien B4 release: mean ± S.E.
Experimental: as §1, §2
(§4) The leukotriene B4 amount was measured using the LTB4 (Leukotriene B4) ELISA kit (MybioSource, San Diego, Calif., USA) on the supernate of the culture medium. 50 μL of the sample was added to 96-plate wells, then 50 μL of Biotinylated Detection Ab working solution was added and incubated at 37° C. for 45 minutes. 100 μL of HRP Conjugate working solution was added and incubated at 37° C. for 30 minutes. 90 μL of Substrate reagent was added and incubated at 37° C. for 15 minutes. Washing was performed between each step. 50 μL of stop solution was added without washing. Absorbance was measured at 450 nm with a spectrophotometer (Biotek, PowerWave XS2, Winooski, Vt., USA).

[5] = test system: HMC-1 cells; test: IL-13 release in PMACI-treated HMC-1 cells (ELISA); details: for IL-13 release: PMACI-treated HMC-1 cells, mean ± S.E.
Experimental: as §1, §2, §3

[6] = test system: HMC-1 cells; test: Histamine release in PMACI-treated HMC-1 cells (ELISA); details: for Histamine release: mean ± S.E.
Experimental: as §1, §2
as §4, with “Allergic reaction factors: Histamine (HIS), Leukotrien” for “The leukotriene”, “(LTB4), and Prostaglandin E2 (PGE2) amounts were evaluated to determine the effects of the disclosed composition on the release of allergic reaction factors. Histamine levels were” for “amount was”, “HIS (Histamine)” for “LTB4 (Leukotriene B4)”, “(Elabscience, Huston, Tex.,” for “(MybioSource, San Diego, Calif.,”

[7] = Tβ4 1.5 μg/ml, PMACI-treated HMC-1 cells
[8] = Tβ4 3 μg/ml, PMACI-treated HMC-1 cells
[9] = Tβ4 6 μg/ml, PMACI-treated HMC-1 cells
[10] = Tβ4 1 μg/ml, PMACI-treated HMC-1 cells

Substance: thymosin beta 4 (SDKPDMAEIEKFDKSKLKKTETQEKNPLPSKETIEQEKQAGES; Thymosin beta-4; UniProt P62328 2-44, looked up) [Tβ4, human protein; polypeptide composed of 43 amino acids having 4.9 kDa]
- Tβ4 concentration most effective in inhibiting the increase of PGE2 release ([1]; PMACI-treated HMC-1 cells): 3 µg/mL
- Tβ4 concentration with inhibitory effect on PGE2 release ([1]; PMACI-treated HMC-1 cells): above 3 μg/ml
- PGE2 release [1, 7]: 97.43 ± 2.56 pg/mL
- PGE2 release [1, 8]: 94.96 ± 0.87 pg/mL
- Amount of PGE2 released compared to PMACI alone ([1]; Tβ4 3 μg/ml, p<0.05): significant inhibitory effect
- PGE2 release [1, 9]: 106.00 ± 3.13 pg/mL
- Release level of PGE2 compared with PMACI treatment alone ([1]; Tβ4 1-6 μg/ml): significantly decreased
- Tβ4 concentration with inhibitory effect on IL-4 release ([2]; PMACI-treated HMC-1 cells): above 1.5 μg/ml
- IL-4 release [2, 10]: 88.27 ± 10.18 pg/mL
- IL-4 release [2, 7]: 79.77 ± 4.27 pg/mL
- IL-4 release [2, 8]: 65.43 ± 7.20 pg/mL
- IL-4 release [2, 9]: 64.01 ± 3.02 pg/mL
- Release level of IL-4 compared with PMACI treatment alone ([2]; Tβ4 1-6 μg/ml): significantly decreased
- Amount of IL-4 released compared to PMACI alone ([2]; Tβ4 1.5, 3, and 6 μg/ml, p<0.05): significant inhibitory effect
- TNF-α release ([3]; Tβ4 1 μg/ml): 513.77 ± 17.85 pg/mL
- TNF-α release ([3]; Tβ4 1.5 μg/ml): 380.23 ± 7.97 pg/mL
- Reduction of TNF-α release compared to PMACI alone ([3]; Tβ4 3 μg/ml): reduced 37.4%
- TNF-α release ([3]; Tβ4 3 μg/ml): 379.42 ± 8.03 pg/mL
- Reduction of TNF-α release compared to PMACI alone ([3]; Tβ4 6 μg/ml): 37.1%
- TNF-α release ([3]; Tβ4 6 μg/ml): 381.46 ± 12.75 pg/mL
- Amount of TNF-α released compared to PMACI alone ([3]; Tβ4 1, 1.5, 3, and 6 μg/ml (1-6 μg/ml), p<0.01): significant inhibitory effect; also recorded: significantly decreased
- Tβ4 concentration most effective in inhibiting the increase of LTB4 release ([4]; PMACI-treated HMC-1 cells): 1.5 µg/mL and 3 µg/mL
- Tβ4 concentration with inhibitory effect on LTB4 release ([4]; PMACI-treated HMC-1 cells): above 1.5 μg/ml
- Leukotrien B4 release [4, 7]: 29.94 ± 1.97 pg/mL
- Leukotrien B4 release [4, 8]: 28.91 ± 2.10 pg/mL
- Leukotrien B4 release [4, 9]: 32.06 ± 2.44 pg/mL
- Release level of LTB4 compared with PMACI treatment alone ([4]; Tβ4 1-6 μg/ml): significantly decreased
- Amount of LTB4 released compared to PMACI alone ([4]; Tβ4 1.5 and 3 μg/ml, p<0.05): significant inhibitory effect
- IL-13 release ([5]; Tβ4 1 μg/ml): 30.07 ± 2.33 pg/mL
- IL-13 release ([5]; Tβ4 1.5 μg/ml): 28.52 ± 2.83 pg/mL
- IL-13 release ([5]; Tβ4 3 μg/ml): 28.22 ± 2.33 pg/mL
- IL-13 release ([5]; Tβ4 6 μg/ml): 26.98 ± 2.45 pg/mL
- Amount of IL-13 released compared to PMACI alone ([5]; Tβ4 1, 1.5, 3, and 6 μg/ml (1-6 μg/ml), p<0.05): significant inhibitory effect; also recorded: significantly decreased
- Tβ4 concentration with inhibitory effect on histamine release ([6]; PMACI-treated HMC-1 cells): above 1 μg/ml
- Tβ4 concentration with the best effect of suppressing the increase of HIS release ([6]; PMACI-treated HMC-1 cells): 3 µg/mL
- Histamine release [6, 10]: 25.96 ± 0.78 pg/mL
- Histamine release [6, 7]: 23.91 ± 0.36 pg/mL
- Histamine release [6, 8]: 22.00 ± 1.10 pg/mL
- Histamine release [6, 9]: 23.46 ± 0.55 pg/mL
- Amount of HIS released compared to PMACI alone ([6]; Tβ4 1, 1.5, 3, 6 μg/ml (1-6 μg/ml), p<0.01): significant inhibitory effect; also recorded: significantly decreased
- Amount of HIS released compared to PMACI alone ([6]; Tβ4 less than 1 μg/ml): no significant difference
